Test results taken from US10584303B2, “Stabilization of isothiazolones in aqueous compositions” (DDP Specialty Electronic Materials US, Inc., priority 2014, dated 2020).
Read-outs that look alike come from different tables or passages of the source.

Legend:
[1] = Stability of MIT: 25% amine and 10 ppm MIT (HPLC); settings: extremely high ratios of amine:isothiazolone (25% amine, 10 ppm MIT); room temperature and 40° C.
Method: (§1) The MWF samples dosed with biocide were analyzed for active level by high pressure liquid chromatography (HPLC) at time 0. The samples were then vortexed and split into a sample that was aged at room temperature and a sample that was aged at 40° C. Each week an aliquot of the aged samples was evaluated by HPLC for the level of active remaining. Samples where no active was found for two consecutive weeks were no longer analyzed.

[2] = 168 h
Method: as §1

| SMILES | stability of MIT compared with other amines [1] | remaining active ingredient MIT (336 h) [wt %] | remaining active ingredient MIT (504 h) [wt %] | remaining active ingredient MIT [2] [wt %] |
| --- | --- | --- | --- | --- |
| CCC(O)CN(CCO)CC(O)CC (stereo not drawn) [Amine D, N,N-bis(2-hydroxybutyl)-2-amino ethanol] | much better stability | – | – | – |
| CC(O)CN(CC(C)O)CC(C)O (stereo not drawn) [Amine G, triisopropanol amine] | – | 110 | 108 | – |
| NCCO [Amine F, 2-aminoethanol, reference compound] | – | 108 | – | 0 |
| CCC(O)CN(CCO)CCO (stereo not drawn) [Amine A, 1-[bis(hydroxylethyl)amino]-2-butanol] | much better stability | – | – | – |
